# According to ChEMBL document CHEMBL1806384, “Identification of benzofuran-4,5-diones as novel and selective non-hydroxamic acid, non-peptidomimetic based inhibitors of human peptide deformylase” (Bioorg Med Chem Lett, 2011):
# Molecular target: T1, Interstitial collagenase (Homo sapiens) (UniProt P03956)
# T1 sequence (whole entry): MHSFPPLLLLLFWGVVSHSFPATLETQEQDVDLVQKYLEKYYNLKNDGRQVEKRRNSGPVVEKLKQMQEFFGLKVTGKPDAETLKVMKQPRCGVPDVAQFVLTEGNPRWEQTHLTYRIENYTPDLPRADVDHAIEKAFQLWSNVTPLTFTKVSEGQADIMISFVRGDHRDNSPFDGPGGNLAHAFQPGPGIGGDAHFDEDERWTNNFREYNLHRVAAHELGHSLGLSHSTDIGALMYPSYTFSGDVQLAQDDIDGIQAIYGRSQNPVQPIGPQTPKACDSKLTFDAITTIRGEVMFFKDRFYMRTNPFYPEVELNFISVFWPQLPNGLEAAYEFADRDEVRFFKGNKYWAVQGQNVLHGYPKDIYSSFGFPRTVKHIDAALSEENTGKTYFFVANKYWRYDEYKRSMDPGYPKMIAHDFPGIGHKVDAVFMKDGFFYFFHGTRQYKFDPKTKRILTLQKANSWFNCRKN
# Assay: Inhibition of human recombinant MMP1 at 100 uM after 1 hr by fluorescence polarization based competition assay
row,SMILES,inhibition
1,O=C1C=Cc2occ(C(=O)c3ccccc3)c2C1=O,0%
2,COc1ccc(C(=O)c2coc3c2C(=O)C(=O)C(Br)=C3Br)cc1,23%
3,COc1cc(C(=O)c2coc3c2C(=O)C(=O)C(Cl)=C3Cl)cc(OC)c1OC,32%
4,COc1ccc(C(=O)c2coc3c2C(=O)C(=O)C(Cl)=C3Cl)cc1OC,46%
5,COc1ccc(C(=O)c2coc3c2C(=O)C(=O)C(Cl)=C3)cc1,11%

# Molecular target: T2, Peptide deformylase (Escherichia coli) (UniProt Q9JN24)
# T2 sequence (whole entry): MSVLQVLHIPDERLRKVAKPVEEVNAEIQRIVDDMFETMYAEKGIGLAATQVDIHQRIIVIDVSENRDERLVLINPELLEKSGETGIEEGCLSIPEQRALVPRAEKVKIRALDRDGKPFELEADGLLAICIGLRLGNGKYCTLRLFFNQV
# Assay: Inhibition of Escherichia coli peptide deformylase at 100 uM after 1 hr by fluorescence polarization based competition assay
row,SMILES,inhibition
1,O=C1C=Cc2occ(C(=O)c3ccccc3)c2C1=O,32%
2,COc1ccc(C(=O)c2coc3c2C(=O)C(=O)C(Br)=C3Br)cc1,22%
3,COc1cc(C(=O)c2coc3c2C(=O)C(=O)C(Cl)=C3Cl)cc(OC)c1OC,27%
4,COc1ccc(C(=O)c2coc3c2C(=O)C(=O)C(Cl)=C3Cl)cc1OC,63%
5,COc1ccc(C(=O)c2coc3c2C(=O)C(=O)C(Cl)=C3)cc1,11%

# System: not listed separately
# Assay: Cytotoxicity against human Meso47 cells
# Format: functional, cell-based
row,SMILES,IC50
1,O=C1C=Cc2occ(C(=O)c3ccccc3)c2C1=O,63 µM
2,COc1ccc(C(=O)c2coc3c2C(=O)C(=O)C(Br)=C3Br)cc1,100 µM
3,COc1cc(C(=O)c2coc3c2C(=O)C(=O)C(Cl)=C3Cl)cc(OC)c1OC,100 µM

# Molecular target: T3, Peptide deformylase, mitochondrial (Homo sapiens) (UniProt Q9HBH1)
# T3 sequence (whole entry): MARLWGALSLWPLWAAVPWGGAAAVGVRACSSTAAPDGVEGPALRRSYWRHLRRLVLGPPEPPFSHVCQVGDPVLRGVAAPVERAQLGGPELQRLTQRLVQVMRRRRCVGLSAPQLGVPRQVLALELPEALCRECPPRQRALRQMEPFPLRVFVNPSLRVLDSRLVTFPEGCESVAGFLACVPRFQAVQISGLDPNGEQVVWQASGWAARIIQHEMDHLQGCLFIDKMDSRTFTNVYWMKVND
# Assay: Inhibition of human peptide deformylase at 100 uM after 1 hr by fluorescence polarization based competition assay
row,SMILES,inhibition
1,O=C1C=Cc2occ(C(=O)c3ccccc3)c2C1=O,100%
2,COc1ccc(C(=O)c2coc3c2C(=O)C(=O)C(Br)=C3Br)cc1,100%
3,COc1cc(C(=O)c2coc3c2C(=O)C(=O)C(Cl)=C3Cl)cc(OC)c1OC,100%
4,COc1ccc(C(=O)c2coc3c2C(=O)C(=O)C(Cl)=C3Cl)cc1OC,100%
5,COc1ccc(C(=O)c2coc3c2C(=O)C(=O)C(Cl)=C3)cc1,100%

# Molecular target: T4, Peptide deformylase (Escherichia coli, UniProt Q9JN24)
# T4 sequence (Q9JN24 whole entry): T2 sequence (whole entry)
# Assay: Inhibition of Escherichia coli peptide deformylase after 1 hr by fluorescence polarization based competition assay
row,SMILES,IC50
1,O=C1C=Cc2occ(C(=O)c3ccccc3)c2C1=O,> 100 µM
2,COc1ccc(C(=O)c2coc3c2C(=O)C(=O)C(Br)=C3Br)cc1,> 100 µM
3,COc1cc(C(=O)c2coc3c2C(=O)C(=O)C(Cl)=C3Cl)cc(OC)c1OC,> 100 µM
4,COc1ccc(C(=O)c2coc3c2C(=O)C(=O)C(Cl)=C3)cc1,> 100 µM

# System: not listed separately
# Assay: Cytotoxicity against human ALL3 cells
# Format: functional, cell-based
row,SMILES,IC50
1,O=C1C=Cc2occ(C(=O)c3ccccc3)c2C1=O,22 µM
2,COc1ccc(C(=O)c2coc3c2C(=O)C(=O)C(Br)=C3Br)cc1,70 µM
3,COc1cc(C(=O)c2coc3c2C(=O)C(=O)C(Cl)=C3Cl)cc(OC)c1OC,49 µM
4,COc1ccc(C(=O)c2coc3c2C(=O)C(=O)C(Cl)=C3)cc1,34 µM

# System: MOLT-3
# Assay: Cytotoxicity against human MOLT3 cells
# Format: functional, cell-based
row,SMILES,IC50
1,O=C1C=Cc2occ(C(=O)c3ccccc3)c2C1=O,7.3 µM
2,COc1ccc(C(=O)c2coc3c2C(=O)C(=O)C(Br)=C3Br)cc1,40 µM
3,COc1cc(C(=O)c2coc3c2C(=O)C(=O)C(Cl)=C3Cl)cc(OC)c1OC,7 µM
4,COc1ccc(C(=O)c2coc3c2C(=O)C(=O)C(Cl)=C3)cc1,47 µM

# System: HL-60
# Assay: Cytotoxicity against human vincristine-resistant HL60 cells
# Format: functional, cell-based
row,SMILES,IC50
1,COc1ccc(C(=O)c2coc3c2C(=O)C(=O)C(Br)=C3Br)cc1,100 µM
2,COc1cc(C(=O)c2coc3c2C(=O)C(=O)C(Cl)=C3Cl)cc(OC)c1OC,55 µM
3,COc1ccc(C(=O)c2coc3c2C(=O)C(=O)C(Cl)=C3Cl)cc1OC,100 µM

# System: not listed separately
# Assay: Cytotoxicity against human CWR22 cells
# Format: functional, cell-based
row,SMILES,IC50
1,O=C1C=Cc2occ(C(=O)c3ccccc3)c2C1=O,30 µM
2,COc1ccc(C(=O)c2coc3c2C(=O)C(=O)C(Br)=C3Br)cc1,70 µM

# System: Jurkat
# Assay: Cytotoxicity against human Jurkat cells
# Format: functional, cell-based
row,SMILES,IC50
1,O=C1C=Cc2occ(C(=O)c3ccccc3)c2C1=O,8.1 µM
2,COc1ccc(C(=O)c2coc3c2C(=O)C(=O)C(Br)=C3Br)cc1,55 µM
3,COc1cc(C(=O)c2coc3c2C(=O)C(=O)C(Cl)=C3Cl)cc(OC)c1OC,5.9 µM
4,COc1ccc(C(=O)c2coc3c2C(=O)C(=O)C(Cl)=C3)cc1,57 µM

# System: HL-60
# Assay: Cytotoxicity against human HL60 cells
# Format: functional, cell-based
row,SMILES,IC50
1,COc1ccc(C(=O)c2coc3c2C(=O)C(=O)C(Br)=C3Br)cc1,53 µM
2,COc1cc(C(=O)c2coc3c2C(=O)C(=O)C(Cl)=C3Cl)cc(OC)c1OC,36 µM
3,COc1ccc(C(=O)c2coc3c2C(=O)C(=O)C(Cl)=C3)cc1,32 µM

# System: HEK293
# Assay: Cytotoxicity against human HEK293 cells
# Format: cell-based
row,SMILES,IC50
1,COc1ccc(C(=O)c2coc3c2C(=O)C(=O)C(Br)=C3Br)cc1,100 µM
2,COc1ccc(C(=O)c2coc3c2C(=O)C(=O)C(Cl)=C3Cl)cc1OC,100 µM
3,COc1ccc(C(=O)c2coc3c2C(=O)C(=O)C(Cl)=C3)cc1,100 µM

# Molecular target: T5, Peptide deformylase, mitochondrial (Homo sapiens, UniProt Q9HBH1)
# T5 sequence (Q9HBH1 whole entry): T3 sequence (whole entry)
# Assay: Inhibition of human peptide deformylase after 1 hr by fluorescence polarization based competition assay
row,SMILES,IC50
1,COc1ccc(C(=O)c2coc3c2C(=O)C(=O)C(Br)=C3Br)cc1,65 µM
2,COc1cc(C(=O)c2coc3c2C(=O)C(=O)C(Cl)=C3Cl)cc(OC)c1OC,25 µM
3,COc1ccc(C(=O)c2coc3c2C(=O)C(=O)C(Cl)=C3Cl)cc1OC,6.1 µM

# Molecular target: T6, Aminopeptidase N (Sus scrofa) (UniProt P15145)
# T6 sequence (whole entry): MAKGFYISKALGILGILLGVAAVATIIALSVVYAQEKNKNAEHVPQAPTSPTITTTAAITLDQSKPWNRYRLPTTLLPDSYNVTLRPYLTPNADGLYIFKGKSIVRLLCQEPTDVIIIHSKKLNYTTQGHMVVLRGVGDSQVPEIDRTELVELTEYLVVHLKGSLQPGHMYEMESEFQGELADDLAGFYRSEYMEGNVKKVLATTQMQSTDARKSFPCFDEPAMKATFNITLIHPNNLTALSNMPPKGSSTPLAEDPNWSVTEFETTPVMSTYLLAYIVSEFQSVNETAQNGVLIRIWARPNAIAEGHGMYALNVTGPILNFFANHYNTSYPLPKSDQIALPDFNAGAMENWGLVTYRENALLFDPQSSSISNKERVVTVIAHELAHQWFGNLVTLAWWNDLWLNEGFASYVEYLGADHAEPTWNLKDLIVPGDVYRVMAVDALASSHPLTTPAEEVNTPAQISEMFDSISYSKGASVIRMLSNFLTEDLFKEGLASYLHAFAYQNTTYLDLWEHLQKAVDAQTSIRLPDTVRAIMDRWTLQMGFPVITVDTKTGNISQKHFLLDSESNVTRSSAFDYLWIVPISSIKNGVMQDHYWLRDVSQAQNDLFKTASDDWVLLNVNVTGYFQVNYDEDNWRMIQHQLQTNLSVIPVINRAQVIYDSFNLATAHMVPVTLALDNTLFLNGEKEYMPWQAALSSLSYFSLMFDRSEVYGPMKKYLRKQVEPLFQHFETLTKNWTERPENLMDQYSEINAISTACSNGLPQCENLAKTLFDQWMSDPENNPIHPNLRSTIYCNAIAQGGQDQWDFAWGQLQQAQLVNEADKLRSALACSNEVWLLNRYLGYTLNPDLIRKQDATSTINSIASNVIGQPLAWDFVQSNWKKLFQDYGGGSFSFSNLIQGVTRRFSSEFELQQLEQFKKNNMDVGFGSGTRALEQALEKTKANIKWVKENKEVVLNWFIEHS
# Assay: Inhibition of porcine kidney microsomal aminopeptidase N at 100 uM after 1 hr by fluorescence polarization based competition assay
row,SMILES,inhibition
1,O=C1C=Cc2occ(C(=O)c3ccccc3)c2C1=O,5%
2,COc1ccc(C(=O)c2coc3c2C(=O)C(=O)C(Br)=C3Br)cc1,41%
3,COc1cc(C(=O)c2coc3c2C(=O)C(=O)C(Cl)=C3Cl)cc(OC)c1OC,50%
4,COc1ccc(C(=O)c2coc3c2C(=O)C(=O)C(Cl)=C3Cl)cc1OC,99%
5,COc1ccc(C(=O)c2coc3c2C(=O)C(=O)C(Cl)=C3)cc1,54%
